According to patent US11464771B2, “Bromodomain and extra-terminal protein inhibitor combination therapy” (CELGENE QUANTICEL RESEARCH, INC., priority 2016, dated 2022):

Assays:
[1] = non-leukemic hematologic malignancies; cited from earlier work
[2] = test system: PA0165 pancreatic xenograft; test: Pancreatic xenograft PA0165, Compound A and Romidepsin; format: in vivo, NSG mice
Protocol: 3/4 is 3 days on and 4 days off; Q4D is once every 4 days; Q7D is once every 7 days; —— Control; - - - - Compound A 25 mg/kg, 3/4; - —— - —— Romidepsin 1.5 mg/kg Q4D×3; —— —— Compound A 25 mg/kg. 3/4 combined with Romidepsin 1.5 mg/kg Q7D; - - - Compound A 25 mg/kg, 3/4 combined with Romidepsin 0.75 mg/kg Q7D. Tumor volumes were plotted as mean±standard error of the mean (SEM).
3/4 is 3 days on and 4 days off; Q4D is once every 4 days. —— Control; - - - - Compound A at 25 mg/kg, 3/4; - —— - —— Romidepsin 1.5 mg/kg Q4D×3; —— —— Compound A 25 mg/kg, 3/4 combined with Romidepsin 1.5 mg/kg Q7D; - - - Compound A 25 mg/kg, 3/4 combined with Romidepsin 0.75 mg/kg Q7D.
Cohorts of 4-6 wk-old NSG mice bearing PA0165 were treated with Romidepsin at 1.5 mg/kg intravenous (IV)×3 Q4D; Compound A 25 mg/kg orally QD 3 days on then 4 days off; or with a combination of Compound A 25 mg/kg orally QD 3 days on then 4 days off and Romidepsin at 1.5 or 0.75 mg/kg IV Q7D. The treatment lasted 21 days.

locally advanced BCC = settings: cited from earlier work
basal cell carcinoma = settings: BCC; cited from earlier work

Cc1sc2c(c1C)C(c1ccc(Cl)cc1)=N[C@@H](CC(=O)Nc1ccc(O)cc1)c1nnc(C)n1-2 [OTX015]
patients with Grade 3 hyperglycemia [1]: 1 patient

C/C=C1\NC(=O)[C@H]2CSSCC/C=C/[C@H](CC(=O)N[C@H](C(C)C)C(=O)N2)OC(=O)[C@H](C(C)C)NC1=O [Romidepsin, (1S,4S,7Z,10S,16E,21R)-7-ethylidene4,21-diisopropyl-2-oxa-12,13-dithia-5,8,20,23-tetrazabicyclo[8.7.6]tricos-16-ene-3,6,9,19,22pentone, reference compound]
TGI ([2]; Romidepsin 1.5 mg/kg IV ×3 Q4D alone, 21 days): 45%
survival rate ([2]; day 30, Romidepsin only group): about 10%

Cc1c(C(=O)Nc2ccc(N3C[C@@H](C)O[C@@H](C)C3)nc2)cccc1-c1ccc(OC(F)(F)F)cc1 [sonidegib]
investigator-assessed responses lasting at least six months (locally advanced BCC): 60%

CS(=O)(=O)c1ccc(C(=O)Nc2ccc(Cl)c(-c3ccccn3)c2)c(Cl)c1 [vismodegib]
median duration of response (basal cell carcinoma): 7.6 months
